Assay results as given in paper PMC11845477, “Exploring the principles behind antibiotics with limited resistance” (Nature Communications, 2025).

Experiments:
[1] = system: P. aeruginosa ATCC BAA-3107 (SEN) and P. aeruginosa LESB58 (MDR); test: microbe, parasite or virus in culture; type: cell-based, Pseudomonas aeruginosa; conditions: for MIC: Pseudomonas aeruginosa, across three biological replicates
Procedure: (§1) This study focused on multiple bacterial strains, as follows. For the FoR and ALE experiments, 2 strains per species were chosen: E. coli ATCC 25922, K. pneumoniae ATCC 10031, A. baumannii ATCC 17978, and P. aeruginosa ATCC BAA-3107 as sensitive (SEN) strains, and E. coli NCTC13846, K. pneumoniae ATCC 700603, A. baumannii ATCC BAA-1605 and P. aeruginosa LESB58 as multi-drug resistant (MDR) strains. Functional metagenomic screens were performed with E. coli ATCC 25922 and K. pneumoniae ATCC 10031 strains. To determine the dose-kill properties of the different antibiotics, an E. coli strain (ATCC 25922) expressing a yellow fluorescent protein (pZS2R, YFP, CHL^R) and a red fluorescent protein (pZS2R, mCherry, CHL^R) was used.
(§2) Unless otherwise indicated, cation-adjusted Mueller-Hinton Broth 2 (MHB, Millipore) medium was used throughout the study, except for SCH79797 (SCH).
(§3) A robotic liquid handling system was used to automatically prepare a 11 to 16-step serial dilution in 384-well microtiter plates (Greiner). A final concentration of 5 × 10^5 bacterial cells per mL were inoculated into each well containing 60 µL MHB medium. Bacterial cultures were incubated at 37 °C with continuous shaking (Infors shaker, 900 rpm with 3 mm throw) for 18 hours (2 replicates from each). Cell growth was monitored by measuring the optical density (OD600 values, using Biotek Synergy microplate reader). MIC was defined as the antibiotic concentration of complete growth inhibition (i.e., OD600 < 0.05). Relative MIC was calculated as follows:1 relativeMIC=MICevolved/MICancestor

[2] = system: K. pneumoniae ATCC 10031 (SEN) and K. pneumoniae ATCC 700603 (MDR); test: Frequency-of-resistance (FoR) assay, relative MIC of mutants; type: cell-based, Klebsiella pneumoniae; conditions: for MIC: Klebsiella pneumoniae
Procedure: The susceptibility of antibiotics to resistance development was evaluated in two strains of each bacterial species: a multidrug-resistant strain and an antibiotic-sensitive strain of Escherichia coli, Klebsiella pneumoniae, Acinetobacter baumannii, and Pseudomonas aeruginosa. To explore first-step resistance, we previously used a standard protocol for spontaneous frequency-of-resistance analysis (FoR assay) at multiple concentrations of each antibiotic[10],[28],[31]–[33]. […] For all other combinations, approximately 10^10 bacterial cells were exposed to one of each antibiotic on agar plates for two days at concentrations where the given strain is susceptible. We examined resistance levels by contrasting the minimum inhibitory concentration (MICs) of the mutated strains to the original wild-type bacterial strain (i.e., relative MIC).
To estimate the frequency of spontaneous mutations that confer resistance in a microbial population, we conducted a frequency of resistance (FoR) assay following established protocols[10],[31]–[33]. […] Prior to plating, bacteria were grown overnight in MHB medium at 37 °C and 250 RPM, then centrifuged and washed in MHB. All experiments were performed in triplicate, and plates were incubated at 37 °C for 48 hours. Total colony-forming units (CFUs) were determined by plating appropriate dilutions onto antibiotic-free MHB agar. Resistance frequencies were calculated by dividing the number of resistant colonies by the initial viable cell count. From the plates with the highest antibiotic concentration, ten colonies were selected for MIC determination and whole-genome sequencing.
as §3, with “relativeMIC=MICevolved/MICancestor […]” for “relativeMIC=MICevolved/MICancestor”
Supplementary Figure 3. Resistance levels following the frequency of resistance assay across bacterial strains. The level of resistance was measured as the fold change in relative MIC between evolved and ancestral strains. Data are grouped by bacterial strain (A. baumannii (AB), E. coli (EC), K. pneumoniae (KP), and P. aeruginosa (PA)) and categorized as either multidrug-resistant (MDR) or sensitive (SEN). Each data point represents a laboratory evolved line, and boxplots show the median, first and third quartiles, with whiskers indicating the 5th and 95th percentiles. […]
analysis was performed using two-sided Dunn’s post-hoc test with Benjamini-Hochberg correction for multiple comparisons (**/ * indicates p < 0.01/ 0.05). For detailed information on antibiotic and bacterial species, see Supplementary Table 1. For mode of action groups, refer to Table 1. Source data are provided as a Source Data file.

[3] = system: A. baumannii ATCC 17978 (SEN) and A. baumannii ATCC BAA-1605 (MDR); test: microbe, parasite or virus in culture; type: cell-based, Acinetobacter baumannii; conditions: for MIC: Acinetobacter baumannii, across three biological replicates
Procedure: as §1, §2, §3

[4] = system: K. pneumoniae ATCC 10031 (SEN) and K. pneumoniae ATCC 700603 (MDR); test: microbe, parasite or virus in culture; type: cell-based, Klebsiella pneumoniae; conditions: for MIC: Klebsiella pneumoniae, across three biological replicates
Procedure: as §1, §2, §3

[5] = system: E. coli ATCC 25922 (SEN) and E. coli NCTC13846 (MDR); test: microbe, parasite or virus in culture; type: cell-based, Escherichia coli; conditions: for MIC: Escherichia coli, across three biological replicates
Procedure: as §1, §2, §3

[6] = P. aeruginosa ATCC BAA 3107 (PA-SEN), ancestor strain, sheet fig 2a
[7] = ATCCBAA3107, Pseudomonas aeruginosa ATCC BAA-3107 (PA-SEN)
[8] = ATCCBAA3107, Pseudomonas aeruginosa LESB 58 (PA-MDR)
[9] = Klebsiella pneumoniae ATCC 10031 (KP-SEN), evolved line 1 versus ancestor
[10] = Klebsiella pneumoniae ATCC 10031 (KP-SEN), evolved line 2 versus ancestor
[11] = Klebsiella pneumoniae ATCC 10031 (KP-SEN), evolved line 3 versus ancestor
[12] = read-out: MIC of evolved line, Klebsiella pneumoniae ATCC 10031 (KP-SEN), evolved line 1
[13] = read-out: MIC of evolved line, Klebsiella pneumoniae ATCC 10031 (KP-SEN), evolved line 2
[14] = read-out: MIC of evolved line, Klebsiella pneumoniae ATCC 10031 (KP-SEN), evolved line 3
[15] = Acinetobacter baumannii ATCC 17978 (AB-SEN), ancestor strain
[16] = Acinetobacter baumannii ATCC 17978 (AB-SEN), ancestor strain, sheet fig 2a
[17] = Acinetobacter baumannii ATCC 17978 (AB-SEN)
[18] = Acinetobacter baumannii ATCC BAA-1605 (AB-MDR)
[19] = Klebsiella pneumoniae ATCC 10031 (KP-SEN), ancestor strain, sheet fig 2a
[20] = Klebsiella pneumoniae ATCC 10031 (KP-SEN)
[21] = Klebsiella pneumoniae ATCC 700603 (KP-MDR)
[22] = Escherichia coli ATCC 25922 (EC-SEN), ancestor strain, sheet fig 2a
[23] = Escherichia coli ATCC 25922 (EC-SEN)
[24] = Escherichia coli NCTC 13846 (EC-MDR)
[25] = PA-SEN, Pseudomonas aeruginosa ATCC BAA 3107, ancestor strain
[26] = E. coli NCTC 13846 (EC-MDR), ancestor strain, sheet fig 2a
[27] = EC-SEN, Escherichia coli ATCC 25922, ancestor strain

C[C@H]1c2cccc(O)c2C(=O)C2=C(O)[C@]3(O)C(=O)C(C(N)=O)=C(O)[C@@H](N(C)C)[C@@H]3[C@@H](O)[C@@H]21 [Doxycycline]
MIC of ancestor [1, 6]: 4 µg/mL | MIC of ancestor ([1]; Pseudomonas aeruginosa ATCC BAA 3107 (PA-SEN), ancestor strain): 4 µg/mL | MIC [1, 7]: 4 µg/mL | MIC [1, 8]: 32 µg/mL | Relative MIC [2, 9]: 4 | Relative MIC [2, 10]: 4 | Relative MIC [2, 11]: 2 | MIC [2, 12]: 1 µg/mL | MIC [2, 13]: 1 µg/mL | MIC [2, 14]: 0.5 µg/mL | MIC of ancestor [3, 15]: 0.25 µg/mL | MIC of ancestor [3, 16]: 0.25 µg/mL | MIC [3, 17]: 0.25 µg/mL | MIC [3, 18]: 8 µg/mL | MIC of ancestor ([4]; Klebsiella pneumoniae ATCC 10031 (KP-SEN), ancestor strain): 0.25 µg/mL | MIC of ancestor [4, 19]: 0.25 µg/mL | MIC [4, 20]: 0.25 µg/mL | MIC [4, 21]: 32 µg/mL | MIC of ancestor ([5]; Escherichia coli ATCC 25922 (EC-SEN), ancestor strain): 1 µg/mL | MIC of ancestor [5, 22]: 1 µg/mL | MIC [5, 23]: 1 µg/mL | MIC [5, 24]: 16 µg/mL

CN(C)[C@@H]1C(O)=C(C(N)=O)C(=O)[C@@]2(O)C(O)=C3C(=O)c4c(O)c(NC(=O)CN5CCCC5)cc(F)c4C[C@H]3C[C@@H]12 [Eravacycline]
MIC of ancestor [1, 6]: 4 µg/mL | MIC of ancestor [1, 25]: 4 µg/mL | MIC [1, 7]: 4 µg/mL | MIC [1, 8]: 32 µg/mL | Relative MIC [2, 9]: 16 | Relative MIC [2, 10]: 16 | Relative MIC [2, 11]: 16 | Relative MIC ([2]; Klebsiella pneumoniae ATCC 700603 (KP-MDR), evolved line 1 versus ancestor): 8 | Relative MIC ([2]; Klebsiella pneumoniae ATCC 700603 (KP-MDR), evolved line 2 versus ancestor): 8 | Relative MIC ([2]; Klebsiella pneumoniae ATCC 700603 (KP-MDR), evolved line 3 versus ancestor): 8 | MIC [2, 12]: 0.5 µg/mL | MIC [2, 13]: 0.5 µg/mL | MIC [2, 14]: 0.5 µg/mL | MIC ([2]; read-out: MIC of evolved line, Klebsiella pneumoniae ATCC 700603 (KP-MDR), evolved line 1): 32 µg/mL | MIC ([2]; read-out: MIC of evolved line, Klebsiella pneumoniae ATCC 700603 (KP-MDR), evolved line 2): 32 µg/mL | MIC ([2]; read-out: MIC of evolved line, Klebsiella pneumoniae ATCC 700603 (KP-MDR), evolved line 3): 32 µg/mL | MIC of ancestor [3, 15]: 0.0625 µg/mL | MIC of ancestor [3, 16]: 0.0625 µg/mL | MIC of ancestor ([3]; Acinetobacter baumannii ATCC BAA 1605 (AB-MDR), ancestor strain): 2 µg/mL | MIC of ancestor ([3]; Acinetobacter baumannii ATCC BAA 1605 (AB-MDR), ancestor strain, sheet fig 2a): 2 µg/mL | MIC [3, 17]: 0.0625 µg/mL | MIC [3, 18]: 2 µg/mL | MIC of ancestor ([4]; K. pneumoniae ATCC 10031 (KP-SEN), ancestor strain): 0.0312 µg/mL | MIC of ancestor [4, 19]: 0.0312 µg/mL | MIC of ancestor ([4]; Klebsiella pneumoniae ATCC 700603 (KP-MDR), ancestor strain): 4 µg/mL | MIC of ancestor ([4]; Klebsiella pneumoniae ATCC 700603 (KP-MDR), ancestor strain, sheet fig 2a): 4 µg/mL | MIC [4, 20]: 0.0312 µg/mL | MIC [4, 21]: 4 µg/mL | MIC of ancestor [5, 26]: 1 µg/mL | MIC of ancestor [5, 27]: 0.125 µg/mL | MIC of ancestor [5, 22]: 0.125 µg/mL | MIC of ancestor ([5]; Escherichia coli NCTC 13846 (EC-MDR), ancestor strain): 1 µg/mL | MIC [5, 23]: 0.125 µg/mL | MIC [5, 24]: 1 µg/mL

CNC(C)C1CCC(N)C(OC2C(N)CC(N)C(OC3OCC(C)(O)C(NC)C3O)C2O)O1 (centres unmarked) [Gentamicin]
MIC of ancestor [1, 6]: 1 µg/mL | MIC of ancestor [1, 25]: 1 µg/mL | MIC [1, 7]: 1 µg/mL | MIC [1, 8]: > 32 µg/mL | Relative MIC [2, 9]: 2 | Relative MIC [2, 10]: 2 | Relative MIC [2, 11]: 32 | MIC [2, 12]: 0.5 µg/mL | MIC [2, 13]: 0.5 µg/mL | MIC [2, 14]: 8 µg/mL | MIC of ancestor ([3]; AB-SEN, Acinetobacter baumannii ATCC 17978, ancestor strain): 0.5 µg/mL | MIC of ancestor [3, 16]: 0.5 µg/mL | MIC [3, 17]: 0.5 µg/mL | MIC [3, 18]: > 32 µg/mL | MIC of ancestor ([4]; KP-SEN, Klebsiella pneumoniae ATCC 10031, ancestor strain): 0.25 µg/mL | MIC of ancestor [4, 19]: 0.25 µg/mL | MIC [4, 20]: 0.25 µg/mL | MIC [4, 21]: 16 µg/mL | MIC of ancestor [5, 26]: 1 µg/mL | MIC of ancestor ([5]; EC-MDR, Escherichia coli NCTC 13846, ancestor strain): 1 µg/mL | MIC of ancestor [5, 27]: 1 µg/mL | MIC of ancestor [5, 22]: 1 µg/mL | MIC [5, 23]: 1 µg/mL | MIC [5, 24]: 1 µg/mL
